Results from article PMC13372822 (The EMBO Journal, 2026).
Where a name gives a salt, the structure may show the parent alone.

Columns and labels:
[1] = tested on: OXGR1 mutants (variant named in the endpoint); test: Calcium mobilization assay, OXGR1 mutants in HEK293; conditions: for Emax: each ligand normalized to WT (100%);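 on all read-outs here: human OXGR1 variants transiently expressed in HEK293 cells, with intracellular calcium read out by Fluo-4 AM fluorescence, measured 24 h after transfection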
Description: (§1) The full-length human SUCR1 and mutations were fused after the HA signal peptide and Flag tag. The constructs were cloned into pcDNA6.0 vector for HEK293 system.
(§2) HEK293 cells were obtained from ATCC (Manassas, VA, USA) and cultured in DMEM supplemented with 10% (v/v) FBS, 100 mg/L penicillin, and 100 mg/L streptomycin in 5% CO2 at 37 °C. For transient transfection, ~2.5 × 10^6 cells were mixed with 2 µg plasmids in 200 µL transfection buffer, and electroporation was carried out with a Scientz-2C electroporation apparatus (Scientz Biotech, Ningbo, China). The experiments were carried out 24 h after transfection. HEK293 cell lines stably expressing Gα16 were constructed by our laboratory.
(§3) For OXGR1, plasmids were transfected into HEK293 (other receptors were transfected into HEK293 stably expressing Gα16) and seeded at a density of 4 × 10^4 per well into 96-well culture plates and incubated for 24 h at 37 °C in 5% CO2. The next day, Cells were incubated with 2 μM/L Fluo-4 AM in HBSS supplemented with 5.6 mM/L D-glucose and 250 μM/L sulfinpyrazone at 37 °C for 45 min. […] Three independent measurements were repeated, i.e., three different transfections, with three technical replicates performed for each experiment. EC50 and Emax values for each curve were calculated by Prism 8.0 software (GraphPad Software).

[2] = target: OXGR1 (Homo sapiens, UniProt Q96P68); test: Calcium mobilization assay (Fluo-4 AM), wild-type OXGR1 in HEK293
Description: as §1, §2, §3

[3] = target: T1, SUCR1 (Homo sapiens, UniProt Q9BXA5); test: Calcium mobilization assay, wild-type SUCR1 in HEK293 stably expressing Gα16; format: cell-based;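 on Emax: percent of the maximal response to succinate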
T1 construct: The full-length human SUCR1 and mutations were fused after the HA signal peptide and Flag tag; HA signal peptide (N); Flag (N); expressed in transfected cells; host or cells: HEK293 stably expressing Gα16 (pcDNA6.0, transient electroporation)
T1 sequence (Q9BXA5 1-334): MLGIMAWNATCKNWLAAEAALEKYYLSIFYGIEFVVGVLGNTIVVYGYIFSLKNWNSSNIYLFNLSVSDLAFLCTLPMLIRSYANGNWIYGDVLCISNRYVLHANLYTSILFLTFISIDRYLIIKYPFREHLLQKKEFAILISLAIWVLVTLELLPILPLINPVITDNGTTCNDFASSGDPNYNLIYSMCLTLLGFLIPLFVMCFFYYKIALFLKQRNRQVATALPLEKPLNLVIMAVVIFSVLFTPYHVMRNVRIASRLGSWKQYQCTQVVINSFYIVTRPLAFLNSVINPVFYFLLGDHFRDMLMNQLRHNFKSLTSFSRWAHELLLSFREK
Description: as §1, §2, §3

[4] = tested on: mock-transfected HEK293 cells; test: Calcium assay in mock-transfected (empty vector) HEK293 cells; format: cell-based
Description: Figure. R3 | Activity of the compounds on OXGR1 using calcium assays.
Concentration-response curves of the four agonists in activating OXGR1 through the calcium assays. HEK293 cells were transfected with OXGR1 or empty vector by electroporation.
Cells were then loaded with Fluo-4 AM and intracellular calcium changes after stimulation with different compounds were monitored. Responses were normalized to 100% for the maximal response of each compound on OXGR1. Data are mean ± S.E.M. from three independent experiments (n = 3), with three technical replicates performed for each […]
(1 picture or pasted object on this page, not shown here)

- EC50 ([1]; OXGR1 D185A): > 1000 µM
- EC50 ([1]; OXGR1 F113A): > 1000 µM
- EC50 ([1]; OXGR1 F113W): 1000 ± 370 µM
- EC50 ([1]; OXGR1 F257A): > 1000 µM
- EC50 ([1]; OXGR1 F257Y): 1900 ± 300 µM
- EC50 ([1]; OXGR1 H114A): 4200 ± 300 µM
- EC50 ([1]; OXGR1 H114L): > 1000 µM
- EC50 ([1]; OXGR1 I172A): > 1000 µM
- EC50 ([1]; OXGR1 L36A): > 1000 µM
- EC50 ([1]; OXGR1 L89A): > 1000 µM
- EC50 ([1]; OXGR1 L186A): > 1000 µM
- EC50 ([1]; OXGR1 L186F): > 10000 µM
- EC50 ([1]; OXGR1 L299P): > 1000 µM
- EC50 ([1]; OXGR1 M168I): 3200 ± 300 µM
- EC50 ([1]; OXGR1 N28A): 580 ± 30 µM
- EC50 ([1]; OXGR1 R110A): > 1000 µM
- EC50 ([1]; OXGR1 R110E): > 10000 µM
- EC50 ([1]; OXGR1 R110Q): > 1000 µM
- EC50 ([1]; OXGR1 R264A): > 10000 µM
- EC50 ([1]; OXGR1 R268A): > 1000 µM
- EC50 ([1]; OXGR1 R288A): > 1000 µM
- EC50 ([1]; OXGR1 R288E): > 1000 µM
- EC50 ([1]; OXGR1 R288Q): > 1000 µM
- EC50 ([1]; OXGR1 Y40A): > 1000 µM
- EC50 ([1]; OXGR1 Y93A): > 1000 µM
- EC50 ([1]; OXGR1 Y284A): > 1000 µM
- EC50 ([2]; EC50, OXGR1 WT, mutant series (Appendix Table S4)): 2000 ± 400 µM
- Emax ([2]; HEK293, OXGR1 WT, each ligand normalized to WT (100%)): 100 ± 4%
- activity in OXGR1-transfected HEK293 cells ([2]; in words): robust activity
- Emax ([3]; HEK293, SUCR1 WT, Emax relative to the SUC, read-out: Emax): 89 ± 1%
- EC50 ([3]; SUCR1 WT): 210 ± 70 µM
Compound: O=C(O)/C=C\C(=O)O [MA, maleate]
- Emax ([1]; OXGR1 D185A): 11± 3 WT%
- Emax ([1]; OXGR1 E97A): 79± 7 WT%
- Emax ([1]; OXGR1 F113A): 5.1± 10 WT%
- increase in potency by F113W mutation ([1]; OXGR1 F113W versus WT): ~ 2 fold
- Emax ([1]; OXGR1 F113W): 99± 14 WT%
- Emax ([1]; OXGR1 F257A): 6.6± 7 WT%
- Emax ([1]; OXGR1 F257Y): 93± 2 WT%
- Emax ([1]; OXGR1 H114A): 79± 4 WT%
- Emax ([1]; OXGR1 H114L): -4.4± 2 WT%
- Emax ([1]; OXGR1 H281A): 67±4 WT%
- Emax ([1]; OXGR1 I172A): 11± 2 WT%
- Emax ([1]; OXGR1 L36A): 10± 3 WT%
- Emax ([1]; OXGR1 L89A): 6.9± 1 WT%
- Emax ([1]; OXGR1 L186A): 14± 2 WT%
- Emax ([1]; OXGR1 L186F): 58± 4 WT%
- Emax ([1]; OXGR1 L299P): 7.8±3 WT%
- activation of OXGR1 L299P ([1]; OXGR1 L299P, in words): abolished
- Emax ([1]; OXGR1 M168I): 71± 0.9 WT%
- Emax ([1]; OXGR1 N28A): 120± 2 WT%
- Emax ([1]; OXGR1 R110A): -4.4± 2 WT%
- Emax ([1]; OXGR1 R110E): 36± 30 WT%
- Emax ([1]; OXGR1 R110Q): 14± 5 WT%
- Emax ([1]; OXGR1 R177A): 130± 8 WT%
- Emax ([1]; OXGR1 R264A): 54± 5 WT%
- Emax ([1]; OXGR1 R268A): 22± 4 WT%
- Emax ([1]; OXGR1 R288A): -2.1±4 WT%
- Emax ([1]; OXGR1 R288Q): 16±2 WT%
- Emax ([1]; OXGR1 Y40A): -1.9± 6 WT%
- Emax ([1]; OXGR1 Y93A): 17± 20 WT%
- Emax ([1]; OXGR1 Y284A): 4.8±4 WT%
- activity in mock-transfected cells [4]: no activity
